Experimental data taken from patent US4291042A, “Antidepressant piperidine derivatives” (John Wyeth & Brother Limited, priority 1979, dated 1981).

Columns and labels:
[1] = tested on: neuronal uptake of noradrenaline into slices of cerebral cortex; test: inhibition of noradrenaline uptake in brain slices; type: biochemical, rat; conditions: for inhibition of noradrenaline uptake (in words): rat brain slices; for Potency Ratio (imipramine = 1.0) Noradrenaline: rat cerebral cortex slices, H^3 noradrenaline
Procedure: (§1) The compounds of formula I were tested for the ability to inhibit noradrenaline and 5-hydroxytryptamine uptake in brain slices in the following standard test:
Concentration-response curves are obtained both for the test compound and for the standard agent, imipramine. The potency of each test compound is expressed in proportion to that of imipramine. Thus, [formula]

[2] = tested on: uptake of 5-hydroxytryptamine; test: inhibition of 5-hydroxytryptamine uptake in brain slices; type: biochemical, rat; set-up: key: Compounds not achieving 50% inhibition are considered inactive; conditions: for inhibition of 5-HT (hydroxytryptamine) uptake (in words): rat brain slices; for Potency Ratio (imipramine = 1.0) 5-hydroxytryptamine: rat cerebral cortex slices, H^3 5-hydroxytryptamine
Procedure: as §1
The effects of test compounds on the neuronal uptake of noradrenaline into slices of cerebral cortex prepared from rat brain is determined according to the method described by Snyder, Green and Hendley, Kinetics of H^3 --norepinephrine accumulation into slices from different regions of the rat brain (J.Pharm. exp. Therap. 164: 90-102) (1968). The effects of test compounds on the uptake of 5-hydroxytryptamine is obtained in a similar manner except that H^3 5-hydroxytryptamine is used in place of H^3 noradrenaline. Concentration-response curves are obtained both for the test compound and for the standard agent, imipramine. The potency of each test compound is expressed in proportion to that of imipramine. Thus, [formula]

[3] = tested on: p-chloroamphetamine induced hyperactivity; test: inhibition of p-chloroamphetamine (pCA) induced hyperactivity; type: in vivo; conditions: female mice; 50 mg/kg po; 20 mg/kg pCA ip 30 min later; activity 10-30 min post pCA
Procedure: Compounds of formula I were also tested for their ability to inhibit p-chloroamphetamine induced hyperactivity. The following procedure was used:
Three groups of 4 female mice (20-24 g) received the test compounds (50 mg/kg po) and a fourth group the requisite volume of vehicle. Thirty minutes later all the animals are given 20 mg/kg p-chloroamphetamine (pCA) ip. The grouped mice are placed immediately in square plastic cages in activity monitors and their motor activity recorded over the period 10-30 minutes post pCA. This procedure is repeated three more times so that four groups of mice are used per treatment and each activity monitor is used with all treatments in turn. The inhibition of pCA induced hyperactivity is calculated thus: [formula] where C=mean activity of control groups 10-30 minutes post pCA.
T=mean activity of treated groups 10-30 minutes post pCA.
This test is used as an in vivo screen for detection of 5-hydroxytryptamineuptake inhibitors.
Compounds giving >50% inhibition are considered of special interest. In such a test the following compounds were particularly active: […]

Compound | inhibition of noradrenaline uptake (in words) [1] | Potency Ratio (imipramine = 1.0) Noradrenaline [1] | inhibition of 5-HT (hydroxytryptamine) uptake (in words) [2] | Potency Ratio (imipramine = 1.0) 5-hydroxytryptamine [2] | % Inhibition of pCA induced hyperactivity [3]
Nc1ccc2c(c1)C(=O)N(C1CCN(CCc3c[nH]c4ccccc34)CC1)C2=O [III, 5-amino-2-(1-[2-(indol-3-yl)ethyl]piperid-4-yl)-1H-isoindole-1,3-(2H)-dione] | very weak inhibitors | inactive | potent inhibitors | 11.0 | –
O=C1c2ccc(Cl)cc2C(=O)N1C1CCN(Cc2c[nH]c3ccccc23)CC1 [Example 16, 5-Chloro-2-[1-(indol-3-ylmethyl)piperid-4-yl]-1H-isoindole-1,3-(2H)-dione] | – | – | – | – | 63%
O=C1c2ccccc2C(=O)N1C1CCN(CCc2c[nH]c3ccccc23)CC1 [II, 2-(1-[2-(Indol-3-yl)ethyl]piperid-4-yl)-1H-isoindol-1,3-(2H)-dione] | very weak inhibitors | 0.06 | potent inhibitors | 8.3 | –
O=C1c2ccccc2C(=O)N1C1CCN(Cc2c[nH]c3ccccc23)CC1 [I, 2-(1-[Indol-3-ylmethyl]piperid-4-yl)-1H-isoindole-1,3-(2H)-dione] | very weak inhibitors | 0.01 | potent inhibitors | 9.5 | 53%
O=C1c2ccccc2S(=O)(=O)N1C1CCN(Cc2c[nH]c3ccccc23)CC1 [Example 3, 2-(1-[Indol-3-ylmethyl]piperid-4-yl)-1,2-benzisothiazolin-3-one-1,1-dioxide] | – | – | – | – | 56%
O=C1c2ccc(Cl)cc2C(=O)N1C1CCN(CCc2c[nH]c3ccccc23)CC1 [Example 8, 5-Chloro-2-(1-[2-(indol-3-yl)ethyl]piperid-4-yl)-1H-isoindole-1,3-(2H)-dione] | – | – | – | – | 94%
O=C1c2ccccc2C(=O)N1C1CCN(Cc2ccccc2)CC1 [B, 2-(1-benzylpiperid-4-yl)-1H-isoindol-1,3-(2H)-dione, reference compound] | inactive | inactive | inactive | inactive | –
